Experimental data taken from article PMC6010013, “Synthesis, physiochemical property and antimicrobial activity of novel quaternary ammonium salts” (Journal of Enzyme Inhibition and Medicinal Chemistry, 2017).
Structures can show the parent of a compound that is named as a salt.

Test system: normal cell lines
Parameters: method as in PMID 25215430
Settings: cell line not given; cited from earlier work

Compound | Cytotoxicity IC50
CCCCCCCCCCCC[N+](C)(CCO)CCO [Compound C12QAS, N-methyl-N-dodecyl-N,N-bis(2-hydroxyethyl) ammonium bromides] | ca. 4.00 μg/mL

Test system: not given
Settings: not given

Compound | melting point
C[N+](CCO)(CCO)CCCCCCSc1nnc(-c2ccc(F)cc2)o1 (as salt: bromide) [Compound 5a] | 74 to 76 °C
C[N+](CCO)(CCO)CCCCCCCCSc1nnc(-c2ccc(F)cc2)o1 (as salt: bromide) [Compound 5b] | 81 to 82 °C
C[N+](CCO)(CCO)CCCCCCCCCCSc1nnc(-c2ccc(F)cc2)o1 (as salt: bromide) [Compound 5c] | 102 to 103 °C
C[N+](CCO)(CCO)CCCCCCCCCCCCSc1nnc(-c2ccc(F)cc2)o1 (as salt: bromide) [Compound 5d] | 98 to 100 °C
C[N+](CCO)(CCO)CCCCCCSc1nnc(-c2ccc(C(F)(F)F)cc2)o1 (as salt: bromide) [Compound 6a] | 93 to 94 °C
C[N+](CCO)(CCO)CCCCCCCCSc1nnc(-c2ccc(C(F)(F)F)cc2)o1 (as salt: bromide) [Compound 6b] | 78 to 80 °C
CC(C)(C)c1ccc(-c2nnc(SCCCCCC[N+](C)(CCO)CCO)o2)cc1 (as salt: bromide) [Compound 7a] | 78 to 80 °C
CC(C)(C)c1ccc(-c2nnc(SCCCCCCCC[N+](C)(CCO)CCO)o2)cc1 (as salt: bromide) [Compound 7b] | 71 to 72 °C
CC(C)(C)c1ccc(-c2nnc(SCCCCCCCCCC[N+](C)(CCO)CCO)o2)cc1 (as salt: bromide) [Compound 7c] | 78 to 80 °C
C[N+](CCO)(CCO)CCCCCCCCSc1nc2ccccc2o1 (as salt: bromide) [Compound 10b] | 125 to 127 °C
C[N+](CCO)(CCO)CCCCCCCCCCSc1nc2ccccc2o1 (as salt: bromide) [Compound 10c] | 128 to 129 °C
C[N+](CCO)(CCO)CCCCCCCCCCCCSc1nc2ccccc2o1 (as salt: bromide) [Compound 10d] | 125 to 127 °C
C[N+](CCO)(CCO)CCCCCCSc1nc2ccccc2s1 (as salt: bromide) [Compound 13a] | 142 to 143 °C
C[N+](CCO)(CCO)CCCCCCCCSc1nc2ccccc2s1 (as salt: bromide) [Compound 13b] | 87 to 89 °C
C[N+](CCO)(CCO)CCCCCCCCCCSc1nc2ccccc2s1 (as salt: bromide) [Compound 13c] | 111 to 112 °C
C[N+](CCO)(CCO)CCCCCCCCCCCCSc1nc2ccccc2s1 (as salt: bromide) [Compound 13d] | 106 to 107 °C
Cc1nnc(SCCCCCC[N+](C)(CCO)CCO)s1 (as salt: bromide) [Compound 16a] | 56 to 57 °C
Cc1nnc(SCCCCCCCC[N+](C)(CCO)CCO)s1 (as salt: bromide) [Compound 16b] | 74 to 75 °C
Cc1nnc(SCCCCCCCCCC[N+](C)(CCO)CCO)s1 (as salt: bromide) [Compound 16c] | 77 to 78 °C
Cc1nnc(SCCCCCCCCCCCC[N+](C)(CCO)CCO)s1 (as salt: bromide) [Compound 16d] | 95 to 96 °C
